Measurements published in ChEMBL document CHEMBL1128468, “Amino acid side chain descriptors for quantitative structure-activity relationship studies of peptide analogues” (J Med Chem, 1995).

Legend:
Details in all cases: read-out: pA2 (converted)
Substance-K receptor [1] = biological target: T1, Substance-K receptor (Oryctolagus cuniculus, UniProt P79218); test: Antagonist activity against Tachykinin receptor 2 was measured by Rabbit pulmonary artery(RPA) assay.; assay type: functional
T1 sequence (P79218 whole entry): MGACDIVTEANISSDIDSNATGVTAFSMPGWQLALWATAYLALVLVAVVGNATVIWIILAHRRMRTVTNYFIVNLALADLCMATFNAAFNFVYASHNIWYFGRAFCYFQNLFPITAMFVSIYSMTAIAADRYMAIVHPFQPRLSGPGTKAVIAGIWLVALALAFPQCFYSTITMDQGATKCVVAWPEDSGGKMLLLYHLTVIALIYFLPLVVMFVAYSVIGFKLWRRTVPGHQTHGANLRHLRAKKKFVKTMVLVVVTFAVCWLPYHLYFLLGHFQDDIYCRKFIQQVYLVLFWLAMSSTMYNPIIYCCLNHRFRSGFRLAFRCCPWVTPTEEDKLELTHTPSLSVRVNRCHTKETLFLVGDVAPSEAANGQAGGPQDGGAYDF

Substance-K receptor [2] = biological target: T2, Substance-K receptor (Mesocricetus auratus, UniProt P51144); test: Antagonist activity against Tachykinin receptor 2 was measured by Hamster isolated trachea(HT) assay.; assay type: functional, tissue-based
T2 sequence (P51144 whole entry): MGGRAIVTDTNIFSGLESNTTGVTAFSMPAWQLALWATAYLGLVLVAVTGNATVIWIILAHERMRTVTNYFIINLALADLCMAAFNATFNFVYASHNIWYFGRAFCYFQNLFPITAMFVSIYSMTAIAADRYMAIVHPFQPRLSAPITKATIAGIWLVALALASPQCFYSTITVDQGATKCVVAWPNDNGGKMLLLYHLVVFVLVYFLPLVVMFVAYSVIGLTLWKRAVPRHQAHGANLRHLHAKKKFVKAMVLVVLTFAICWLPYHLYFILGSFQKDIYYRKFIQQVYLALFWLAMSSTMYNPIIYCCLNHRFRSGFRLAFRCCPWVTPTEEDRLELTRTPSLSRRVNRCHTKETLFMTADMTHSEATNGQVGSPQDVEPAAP

Substance-K receptor [3] = biological target: T3, Substance-K receptor (Rattus norvegicus, UniProt P16610); test: Antagonism against Tachykinin receptor 2 in rat vas deferens(RVD); assay type: functional
T3 sequence (P16610 whole entry): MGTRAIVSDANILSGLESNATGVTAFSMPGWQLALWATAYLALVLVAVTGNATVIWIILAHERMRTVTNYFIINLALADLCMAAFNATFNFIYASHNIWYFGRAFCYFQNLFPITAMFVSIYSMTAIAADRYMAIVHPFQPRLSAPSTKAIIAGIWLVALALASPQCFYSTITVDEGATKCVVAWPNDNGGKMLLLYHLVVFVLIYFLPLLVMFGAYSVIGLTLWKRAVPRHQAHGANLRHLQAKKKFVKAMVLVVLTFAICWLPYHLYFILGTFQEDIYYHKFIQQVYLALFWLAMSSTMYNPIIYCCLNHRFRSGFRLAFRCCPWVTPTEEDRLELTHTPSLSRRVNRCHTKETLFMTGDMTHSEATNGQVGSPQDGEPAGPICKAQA

Row | Molecule | Kb (Substance-K receptor [1]) | Kb (Substance-K receptor [2]) | Kb (Substance-K receptor [3])
1 | CC(C)[C@H](NC(=O)[C@@H](Cc1c[nH]c2ccccc12)NC(=O)[C@H](CCCCN)NC(=O)[C@@H](N)CC(=O)O)C(=O)N[C@H](Cc1c[nH]c2ccccc12)C(=O)N[C@H](Cc1c[nH]c2ccccc12)C(=O)N[C@@H](CCCCN)C(=O)O | 100000 nM | 4170 nM | –
2 | CC(C)[C@H](NC(=O)[C@@H](Cc1c[nH]c2ccccc12)NC(=O)[C@H](Cc1ccc(O)cc1)NC(=O)[C@@H](N)CC(=O)O)C(=O)N[C@H](Cc1c[nH]c2ccccc12)C(=O)N[C@H](Cc1c[nH]c2ccccc12)C(=O)N[C@@H](Cc1ccc(O)cc1)C(=O)O | 100000 nM | 1740 nM | 191 nM
3 | CC(C)[C@H](NC(=O)[C@@H](Cc1c[nH]c2ccccc12)NC(=O)[C@H](Cc1ccc(O)cc1)NC(=O)[C@@H](N)CC(=O)O)C(=O)NCC(=O)N[C@H](Cc1c[nH]c2ccccc12)C(=O)N[C@@H](CCCN=C(N)N)C(=O)O | 19500 nM | 6310 nM | 18600 nM
4 | CC(C)C[C@H](NC(=O)[C@@H](Cc1c[nH]c2ccccc12)NC(=O)[C@@H](NC(=O)[C@@H](Cc1c[nH]c2ccccc12)NC(=O)[C@H](Cc1ccc(O)cc1)NC(=O)[C@@H](N)CC(=O)O)C(C)C)C(=O)N[C@@H](CCCN=C(N)N)C(=O)O | 191 nM | 646 nM | 224 nM
5 | CC(C)[C@H](NC(=O)[C@@H](Cc1c[nH]c2ccccc12)NC(=O)[C@H](Cc1ccc(O)cc1)NC(=O)[C@@H](N)CC(=O)O)C(=O)N[C@H](Cc1c[nH]c2ccccc12)C(=O)N[C@H](Cc1c[nH]c2ccccc12)C(=O)N[C@@H](CCCN=C(N)N)C(=O)O | 22.4 nM | 1580 nM | 251 nM
6 | CC(C)[C@H](NC(=O)[C@@H](Cc1c[nH]c2ccccc12)NC(=O)[C@H](Cc1ccc(O)cc1)NC(=O)[C@@H](N)CC(=O)O)C(=O)N[C@H](Cc1c[nH]c2ccccc12)C(=O)N[C@H](Cc1c[nH]c2ccccc12)C(=O)N[C@@H](CCC(=O)O)C(=O)O | 2630 nM | 427 nM | 30.9 nM
7 | CC(C)[C@H](NC(=O)[C@@H](Cc1c[nH]c2ccccc12)NC(=O)[C@H](Cc1ccc(O)cc1)NC(=O)[C@@H](N)CC(N)=O)C(=O)N[C@H](Cc1c[nH]c2ccccc12)C(=O)N[C@H](Cc1c[nH]c2ccccc12)C(=O)N[C@@H](CCCN=C(N)N)C(=O)O | 64.6 nM | 1170 nM | 347 nM
8 | H-DYYVYYR-OH | 100000 nM | 100000 nM | 9330 nM
9 | CC(C)[C@@H](NC(=O)[C@@H](Cc1c[nH]c2ccccc12)NC(=O)[C@@H](Cc1ccc(O)cc1)NC(=O)[C@@H](N)CC(=O)O)C(=O)NCC(=O)N[C@H](Cc1c[nH]c2ccccc12)C(=O)N[C@H](CCCN=C(N)N)C(=O)O | 263 nM | 562 nM | 380 nM
10 | C[C@H](NC(=O)[C@@H](Cc1c[nH]c2ccccc12)NC(=O)[C@H](Cc1ccc(O)cc1)NC(=O)[C@@H](N)CC(=O)O)C(=O)N[C@H](Cc1c[nH]c2ccccc12)C(=O)N[C@H](Cc1c[nH]c2ccccc12)C(=O)N[C@@H](CCCCN)C(=O)O | 1350 nM | 355 nM | 295 nM
11 | H-DYPVWWR-OH | 12900 nM | 17400 nM | 4370 nM
12 | CC(C)[C@H](NC(=O)[C@@H](Cc1c[nH]c2ccccc12)NC(=O)[C@H](Cc1ccc(O)cc1)NC(=O)[C@@H](N)CCC(N)=O)C(=O)N[C@H](Cc1c[nH]c2ccccc12)C(=O)N[C@H](Cc1c[nH]c2ccccc12)C(=O)N[C@@H](Cc1ccccc1)C(=O)O | 1660 nM | 1740 nM | –

Now from value to molecule:

Row | Kb (Substance-K receptor [1]) | Kb (Substance-K receptor [2]) | Kb (Substance-K receptor [3]) | Molecule
13 | 4790 nM | 6460 nM | 1950 nM | CSCC[C@H](NC(=O)[C@@H](Cc1c[nH]c2ccccc12)NC(=O)[C@@H](Cc1c[nH]c2ccccc12)NC(=O)[C@@H](NC(=O)[C@@H](Cc1c[nH]c2ccccc12)NC(=O)[C@H](CO)NC(=O)[C@@H](N)CC(=O)O)C(C)C)C(=O)O
14 | 100000 nM | 14800 nM | 14100 nM | CSCC[C@H](NC(=O)[C@H](CC(C)C)NC(=O)CNC(=O)[C@@H](Cc1c[nH]c2ccccc12)NC(=O)[C@H](Cc1ccccc1)NC(=O)[C@H](Cc1ccc(O)cc1)NC(=O)[C@@H](N)CC(=O)O)C(=O)O
15 | 1260 nM | 933 nM | 288 nM | CC(C)[C@H](NC(=O)[C@@H](Cc1c[nH]c2ccccc12)NC(=O)[C@H](Cc1ccc(O)cc1)NC(=O)[C@@H](N)CC(=O)O)C(=O)N[C@H](Cc1c[nH]c2ccccc12)C(=O)N[C@H](Cc1c[nH]c2ccccc12)C(=O)N[C@@H](Cc1ccccc1)C(=O)O
16 | 1480 nM | 141 nM | 34.7 nM | CC(C)[C@H](NC(=O)[C@@H](Cc1c[nH]c2ccccc12)NC(=O)[C@H](Cc1ccc(O)cc1)NC(=O)[C@@H](N)CC(=O)O)C(=O)N[C@H](Cc1c[nH]c2ccccc12)C(=O)N[C@H](Cc1c[nH]c2ccccc12)C(=O)NCC(=O)O
17 | 5890 nM | 9120 nM | 7760 nM | CSCC[C@H](NC(=O)[C@H](CC(C)C)NC(=O)CNC(=O)[C@@H](Cc1c[nH]c2ccccc12)NC(=O)[C@H](Cc1ccccc1)NC(=O)[C@@H](Cc1c[nH]c2ccccc12)NC(=O)[C@@H](N)CC(=O)O)C(=O)O
18 | 1620 nM | 1200 nM | 79.4 nM | CC(C)C[C@H](NC(=O)[C@@H](Cc1c[nH]c2ccccc12)NC(=O)[C@@H](Cc1c[nH]c2ccccc12)NC(=O)[C@@H](NC(=O)[C@@H](Cc1c[nH]c2ccccc12)NC(=O)[C@H](Cc1ccc(O)cc1)NC(=O)[C@@H](N)CC(=O)O)C(C)C)C(=O)O
19 | 6310 nM | 11200 nM | 339 nM | CC(C)[C@H](NC(=O)[C@@H](Cc1c[nH]c2ccccc12)NC(=O)[C@H](Cc1c[nH]c2ccccc12)NC(=O)[C@@H](N)CC(=O)O)C(=O)N[C@H](Cc1c[nH]c2ccccc12)C(=O)N[C@H](Cc1c[nH]c2ccccc12)C(=O)N[C@@H](CCCN=C(N)N)C(=O)O
20 | 1620 nM | 1380 nM | 155 nM | CC(C)[C@H](NC(=O)[C@@H](Cc1c[nH]c2ccccc12)NC(=O)[C@H](Cc1ccc(O)cc1)NC(=O)[C@@H](N)CC(=O)O)C(=O)N[C@H](Cc1c[nH]c2ccccc12)C(=O)N[C@H](Cc1c[nH]c2ccccc12)C(=O)N[C@H](Cc1c[nH]c2ccccc12)C(=O)O
21 | 100000 nM | 15500 nM | 25700 nM | CC(C)[C@H](NC(=O)[C@H](Cc1c[nH]c2ccccc12)NC(=O)[C@H](Cc1ccc(O)cc1)NC(=O)[C@@H](N)CC(=O)O)C(=O)N[C@H](Cc1c[nH]c2ccccc12)C(=O)N[C@H](Cc1c[nH]c2ccccc12)C(=O)N[C@@H](CCCN=C(N)N)C(=O)O
22 | 407 nM | 1100 nM | 851 nM | CC(C)[C@@H](NC(=O)[C@@H](Cc1c[nH]c2ccccc12)NC(=O)[C@@H](Cc1ccc(O)cc1)NC(=O)[C@@H](N)CC(=O)O)C(=O)N[C@H](Cc1c[nH]c2ccccc12)C(=O)N[C@H](Cc1c[nH]c2ccccc12)C(=O)N[C@H](CCCN=C(N)N)C(=O)O
23 | 89.1 nM | 1450 nM | 380 nM | CSCC[C@H](NC(=O)[C@@H](Cc1c[nH]c2ccccc12)NC(=O)[C@@H](Cc1c[nH]c2ccccc12)NC(=O)[C@@H](NC(=O)[C@@H](Cc1c[nH]c2ccccc12)NC(=O)[C@H](Cc1ccc(O)cc1)NC(=O)[C@@H](N)CC(=O)O)C(C)C)C(=O)O
24 | 100000 nM | 31600 nM | 2400 nM | CC(C)[C@H](NC(=O)[C@@H](Cc1c[nH]c2ccccc12)NC(=O)[C@@H](Cc1c[nH]c2ccccc12)NC(=O)[C@@H](N)CC(=O)O)C(=O)N[C@H](Cc1c[nH]c2ccccc12)C(=O)N[C@H](Cc1c[nH]c2ccccc12)C(=O)N[C@@H](CCCN=C(N)N)C(=O)O
